# Measurements from patent US9212204B2, “Treatment of rett syndrome using glycyl-L-2-methylprolyl-L-glutamic acid” (priority 2011, dated 2015).
# Non-standard residues stand in square brackets, D forms with d. Residues, ends and D or L forms follow the SMILES beside them. αMeP = C[C@@]1(C(=O)O)CCCN1
# Tests used:
# MeCP2 knockout mice = assay: Nocturnal activity measurements; type: in vivo, mouse; details: 20 mg/kg i.p. daily; after 6 weeks
# Procedure: (§1) For the survival measurements, the nocturnal activity analysis and the immunoblot analysis, G-2-MePE (synthesised Albany Molecular Research Inc. (Albany, N.Y.) and supplied by Neuren Pharmaceuticals Limited) is administered daily via intra-peritoneal injections (20 mg/kg, vehicle=saline, 0.01% BSA). The treatment starts at PI 5 and is maintained throughout the course of the experiments. For intracellular physiology experiments, the mice are injected daily with G-2-MePE (20 mg/kg body weight, vehicle=saline, 0.01% BSA) for 2 weeks, from P15 to P28-P32 when they are used for acute slice preparation. For optical imaging experiments, mice are injected with G-2-MePE (20 mg/kg body weight, vehicle=saline, 0.01% BSA) daily from the day of the lid suture to the day of imaging.
# Spontaneous motor activity is measured by using an infrared beam-activated movement-monitoring chamber (Opto-Varimax-MiniA; Columbus Instruments, Columbus, Ohio). […] Movement is monitored during the normal 12-h dark cycle (7 p.m. to 7 a.m.). […]
# MeCP2−/y mice develop Rett-like symptoms beginning at 4-6 weeks of age when they progressively become lethargic, develop gait ataxia and die between 10 and 12 weeks of age (Chen et al., 2001). Baseline locomotor activity is also recorded in mice after 6 weeks by counting nocturnal infrared beam crossing events within a caged area.
# [1] = system: ChAT-positive neurons in the striatum of 18-month old rats; assay: ChAT immunohistochemistry in striatum of aging rats; type: in vivo, rat; details: single s.c. dose 0.012-12 mg/kg, 3 days after treatment
# Procedure: In this experiment, we tested the effects of G-2-MePE on the number of ChAT-positive neurons in brains of 18-month old rats.
# Eighteen-month old male rats received one of five treatments. A control group was treated with vehicle (saline alone (n=4) and four groups were treated with a single dose of G-2-MePE. Doses of 0.012 (n=4), 0.12 (n=5), 1.2 (ln=5) and 12 mg/kg (n=3), respectively, were given sub-cutaneously. Rats were sacrificed with an overdose of pentobarbital 3 days after drug treatment. Brains were perfused with normal saline and 4% paraformaldehyde and fixed in perfusion fixative overnight. Brains were stored in 25% sucrose in 0.1M PBS (pH7.4) until the tissue sank. Frozen coronal sections of striatum were cut with a microtome and stored in 0.1% sodium azide in 0.1M PBS at 4° C. Immunoreactivity for choline acetyltransferase (ChAT) was established by staining using a free floating section method. Briefly, antibodies were diluted in 1% goat serum. The sections were incubated in 0.2% triton in 0.1M PBS/Triton™ at 4° C. overnight before Immunohistochemical staining. The sections were pre-treated with 1% H2O2 in 50% methanol for 20 min. […]
# The size of the striatal region used for the count was measured using an image analyser. […]
# Data were analysed using a paired t-test and presented as mean+/−SEM.
# MeCP2-/y mice = assay: Life span of MeCP2-/y mice (Example 10); type: in vivo, mouse; details: 20 mg/kg i.p. daily; compared to MeCP2 KO littermates
# Procedure: as §1
# To test whether G-2-MePE treatment will impact the development of cardinal features of the RTT disease, 2 week old mutant animals are given daily intra-peritoneal injections for the course of their lifespan. Measurements of synaptic physiology, synaptic molecular composition, and cortical plasticity are then acquired as detailed below, along with health-related measurements such as heart rate, locomotor activity levels, and lifespan.
smiles,measurement,setting,value
"C[C@@]1(C(=O)N[C@@H](CCC(=O)O)C(=O)O)CCCN1C(=O)CN [Example G-2-MePE, Glycyl-L-2-methylprolyl-L-glutamic acid] (H-Gly-[αMeP]-Glu-OH)",locomotor activity levels (nocturnal infrared beam crossing),MeCP2 knockout mice,elevates
same,number of ChAT-immunopositive neurons,[1],increased
same,increase in life expectancy (0.5 probability survival rate),MeCP2-/y mice,~50%
